For 1 molecule, t1/2 results are on record in ChEMBL document CHEMBL5634130, “Exploring the structural-activity relationship of hexahydropyrazino[1,2-d]pyrido[3,2-b][1,4]oxazine derivatives as potent and orally-bioavailable PARP7 inhibitors” (Eur J Med Chem, 2023).

The nature of the data set: Half life in fasted ICR mouse at 10 mg/kg, po measured for 24 hrs by LC-MS analysis. In kind it is ADME, organism-based. Particulars: in vivo.

For the molecule `O=C(CCOC[C@@H]1CCN1c1cn[nH]c(=O)c1C(F)(F)F)N1CCN2c3ncc(C(F)(F)F)cc3OC[C@@H]2C1`, the t1/2 is 3.7 h.
